{"source": "patent US20240018125A1", "about": "“CYCLIC ISOTHIOUREA DERIVATIVES AS CXCR4 MODULATORS” (ERMIUM THERAPEUTICS, priority 2020, published 2024)", "key": {"[1]": {"biological_target": "T1, Recombinant CXCR4 receptor (Homo sapiens, UniProt P61073)", "T1 construct": "host or cells: HEK-293 T cells", "T1 sequence (P61073 whole entry)": "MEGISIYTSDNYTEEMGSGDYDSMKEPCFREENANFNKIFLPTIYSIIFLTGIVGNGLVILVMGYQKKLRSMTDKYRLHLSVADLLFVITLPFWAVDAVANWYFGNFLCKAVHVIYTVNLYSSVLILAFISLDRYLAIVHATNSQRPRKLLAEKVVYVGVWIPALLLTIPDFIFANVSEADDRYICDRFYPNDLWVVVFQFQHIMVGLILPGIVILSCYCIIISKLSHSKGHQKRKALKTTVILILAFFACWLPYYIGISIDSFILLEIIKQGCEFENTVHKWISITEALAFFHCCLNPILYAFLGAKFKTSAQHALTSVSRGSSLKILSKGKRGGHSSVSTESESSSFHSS", "experiment": "G.Validation fluorescence assay of CXCR4 receptor conformational changes in lipidic micelles SB2L4 and SB3L1", "assay_type": "biochemical", "details": "SB2L4 and SB3L1, 40 min", "text": "G.Validation® assay is […] biotech proprietary fluorescence based assay that assesses conformational changes of a receptor upon activation/inactivation. Recombinant CXCR4 receptor is produced and purified from HEK-293 T cells using […] proprietary mixes. Receptor is then reconstituted in detergent buffers containing lipids mimicking the lipidic composition of dendritic cells (DC) and macrophages (SB2L4 and SB3L1). Thereafter, the receptor is labelled with a non-modifying probe allowing the detection of the activation state and conformational change of the receptor upon addition of a ligand. Indeed, the probe emission spectra maximum wavelength (Amax) shifts according to activation/inactivation of the receptor. Thus, kinetic of activation/inactivation of the receptor can be followed by monitoring Amax shift after addition of a ligand over time. Emission spectra were registered for 40 minutes after addition of each ligand. […] Activation/inactivation kinetics were also followed using an exemplary compound of formula (I), i.e."}, "[2]": {"test_system": "irrelevant G-protein coupled receptor (GPCR)", "experiment": "G.Validation fluorescence assay on irrelevant GPCR control", "assay_type": "biochemical", "details": "SDF1α 15 μM, AMD3100 100 μM, Example 60 150 μM; SB3L1"}, "Male C57BL/6 Rj mice": {"test_system": "Male C57BL/6 Rj mice", "experiment": "In vivo evaluation of CXCR4 antagonistic activity by mobilisation of blood cells", "parameters": "species or system mouse", "details": "20 mg/kg single i.p., 2:30 h after injection; shown also for neutrophils, monocytes, lymphocytes, eosinophils", "protocol": "Male C57BL/6 Rj mice (7 weeks old) were obtained from Janvier (Le Genest-Saint-Isle, France). Mice were treated by a single intraperitoneal (i.p.) administration at timepoint 0 h. The experimental groups (n=10) were defined as follows: • Mice of group 1 were treated with vehicle only (0.9% NaCl aqueous solution) • Mice of group 2 were treated with AMD3100 (CXCR4 antagonist, Sigma-Aldrich, St Louis, USA) at 20 mg/kg (volume of 10 mL/kg) in 0.9% NaCl aqueous solution • Mice of group 3 were treated with an exemplary compound of formula (I), i.e. Example 60, at 30 mg/kg (volume of 10 mL/kg) in 0.9% NaCl aqueous solution\nAfter 2:30 h, whole blood (at least 200 μl, max 1 mL) was collected in EDTA tubes before sacrifice by an intracardiac puncture under isoflurane anaesthesia and haematology parameters were determined the same day by laser flow cytometry, optical fluorescence and Laminar Flow Impedance™ using the ProCyte Dx hematology analyser (IDEXX, Eau Claire, USA). Differential leukocyte counts were performed to quantify specific immune cell types. Data are reported as total number of cells (K/μL), mean±S.E.M., as well as the statistical significance versus the vehicle control group using unpaired t-tests."}, "[3]": {"test_system": "peripheral blood mononuclear cells (PBMCs) from healthy donors", "experiment": "IFN production by R848-activated PBMCs, quantified with twINNE luciferase reporter cell line", "assay_type": "cell-based, human", "details": "Homo sapiens, PBMC; read-out: IC50 of anti-inflammatory activity (IFN production by activated PBMCs)", "method_in_brief": "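Healthy-donor PBMCs (4.10^6/mL, RPMI/10% FBS) were pre-treated with compound, then stimulated with R848 at 5 μg/mL for 24 h. Supernatants were put on twINNE cells, which carry luciferase under five ISREs, for 24 h, and Bright-Glo luminescence was read. IC50 values came from variable-slope dose-response fits.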"}, "[4]": {"biological_target": "T2, human CXCR4 (hCXCR4) receptor (Homo sapiens, UniProt P61073)", "T2 construct": "expressed in transfected cells; host or cells: HEK-293 T cells, transient co-transfection with polyethylenimine", "T2 sequence (P61073 whole entry)": "as above", "experiment": "BRET assay of antagonist activity on the CXCR4-CXCL12 signaling pathway (Gαi2 recruitment) in HEK-293 T cells", "assay_type": "cell-based", "details": "HEK-293 T cells with hCXCR4, Gαi2 and BRET biosensors; 10 min with compound, then EC80 CXCL12", "protocol": "Examples of the present invention were tested for their antagonist activity on human CXCR4 (hCXCR4) receptor transiently over-expressed in HEK-293 T cells. Compounds exert antagonist activity if they decrease the action of CXCL12 on the receptor.\nThe specific effector (luciferase tagged: BRET donor) recruited at the membrane will be in close proximity to a plasma membrane anchor (GFP tagged: BRET acceptor) to induce a BRET signal (Hamdan et a1, 2006, Chapter 5, Current Protocols in Neuroscience).\nHEK-293 T cells are maintained in Dulbecco's Modified Eagle's Medium supplemented with 10% Foetal Calf Serum, 1% Penicillin/Streptomycin at 37° C./5% CO2. Cells are co-transfected using polyethylenimine (25 kDa linear) with several DNA plasmids encoding: hCXCR4; Gai2; an intracellular effector fused to luciferase (BRET donor); a plasma membrane effector fused to GFP (BRET acceptor). After transfection, cells are cultured for 48 h at 37° C./5% CO2. On the day of the assay, cells are detached using trypsin 0.05%, resuspended in assay buffer (1.8 mM CaCl2, 1 mM MgCl2, 2.7 mM KCl, 137 mM NaCl, 0.4 mM NaH2PO4, 5.5 mM D-Glucose, 11.9 mM NaHCO3, 25 mM Hepes) and seeded in 384 well plate at a density of 20,000 cells per well. Then, plates are equilibrated 3.5 h at 37° C. before adding compounds. Compounds and luciferase substrate are added to the cells using an automated device (Freedom Evo®, Tecan) and BRET readings are collected on EnVision (PerkinElmer) with specific filters (410 nm BW 80 nm, 515 nm BW 30 nm).\nCells are first incubated for 10 minutes with the compound alone. Then, cells are stimulated by an EC80 CXCL12 concentration for additional 10 minutes and luminescence is recorded. EC80 CXCL12 concentration is the concentration giving 80% of the maximal CXCL12 response. Antagonist activity is evaluated in comparison to basal signals evoked by EC80 CXCL12 alone.\nFor IC50 determination, a dose-response test is performed using 20 concentrations (ranging over 6 logs) of each compound. Dose-response curves are fitted using the sigmoidal dose-response (variable slope) analysis in GraphPad Prism software (GraphPad Software) and IC50 of antagonist activity is calculated. Dose-response experiments are performed in duplicate, in two independent experiments.\nHEK-293 T cells were transfected to allow measuring the recruitment of Gai2 proteins involved in intracellular signaling by human CXCR4 receptor (hCXCR4) via the BRET technology. Cells were then incubated with various concentrations of examples of the invention before stimulation with an EC80 concentration of CXCL12."}, "[5]": {"test_system": "monocytes from healthy donors", "experiment": "Intracellular TNFα, IL-6 and IL-1β production by R848-activated monocytes after CXCR4 siRNA knockdown or AMD3100 block (flow cytometry)", "assay_type": "cell-based, human", "text": "The blood from healthy donors was obtained from “Etablissement Français du Sang” (convention #19/EFS/029), Paris, France.\nPeripheral blood mononuclear cells (PBMCs) were isolated by density centrifugation from peripheral blood leukocyte separation medium, lymphoprep (Stemcell Technologies, Vancouver, Canada).\nMonocytes used for in vitro experiments as described in part C/D were purified by positive selection with human CD14 microbeads (Miltenyi Biotec, Bergisch Gladbach, Germany) from PBMCs.\nMonocytes were cultured in RPMI 1640 (Sigma-Aldrich, St Louis, USA) containing 10% heat-inactivated Fetal Bovine Serum (FBS, Sigma-Aldrich, St Louis, USA) at 37° C./5% CO2.\nPBMCs and monocytes used herein were prepared as described in part A ‘Immune cells preparation’, above. Monocytes as prepared in part C ‘In vitro knockdown using siRNA or CXCR4 antagonist treatment’ and D ‘Quantification of TNFα, IL-6 and IL1β productions’ were incubated with one exemplary compound of formula (I), i.e. […] Monocytes were analysed by flow cytometry. For intracellular TNFα, IL-6 and IL-1p labelling as described in Part D ‘Quantification of TNFα, IL-6 and IL-1β productions’, Brefeldin A (BFA) was added to the cells 30 minutes after R848 stimulation.\nIsolated monocytes were seeded at 10^5 cells/100 μL in 96-well plates and incubated at 37° C.\nMonocytes were then treated with small interfering RNA (siRNA) which target the chemokine receptor CXCR4 mRNA (siCXCR4) (Smart Pool, Dharmacon, Lafayette, USA), or with control siRNAs (siCTL) and coupled to a transfection agent DOTAP (Roche Applied Science, Penzberg, Germany). The mix was gently mixed and incubated at room temperature for 15 minutes. After incubation, the mix was added to cells in culture at a final concentration of 160 nM. Finally, cells were incubated at 37° C. for 24 hours.\nAlternatively, monocytes were treated after seeding with the CXCR4 antagonist AMD3100 (Sigma-Aldrich, USA) at 20 μM for 1 hour.\nMonocytes as treated in part C, were washed in phosphate-buffered saline (PBS) and incubated with a viability marker (Zombie Aqua, Biolegend, San Diego, USA) for 30 minutes at room temperature. After washing, cells were resuspended in PBS containing 2% FBS and 2 mM ethylenediaminetetraacetic acid (EDTA) and labelled with anti-CD14 antibody (clone REA599, Miltenyi Biotech, Bergisch Gladbach, Germany), used at 1:100. For intracellular labelling of TNFα, IL-6 and IL-1β, the “Inside Stain” kit (Miltenyi Biotec, Bergisch Gladbach, Germany) was used according to the manufacturer's protocol. Cells were fixed for 20 minutes at room temperature with 250 μL of Inside Fix solution and then labelled in 100 μL of Inside Perm solution containing anti-TNFα antibody (clone cA2), anti-IL-6 antibody (clone REA1037) or anti-IL-1p antibody (clone REA1172) at 1/500 for 30 minutes at room temperature (all from Miltenyi Biotec, Bergisch Gladbach, Germany). Data acquisition was performed on the Canto II flow cytometer using Diva software (BD Biosciences, San Jose, USA). FlowJo software was used to analyse the data."}, "[6]": {"details": "AMD3100 20 μM, Example 77 10, 50 and 500 nM, R848"}}, "note": "Structures can show the parent of a compound that is named as a salt."}
{"smiles": "c1cc(CN2CCCNCCNCCCNCC2)ccc1CN1CCCNCCNCCCNCC1", "note": "[AMD3100, plerixafor, reference compound]", "values": [{"measurement": "CXCR4 structural activation/inactivation, Amax shift in fluorescence", "setting": "[1]; ligand 100 μM added after Example 60 150 μM", "value": "did not reverse Example 60 effect"}, {"measurement": "CXCR4 structural activation/inactivation, Amax shift in fluorescence", "setting": "[1]; ligand 100 μM added after SDF1α 15 μM", "value": "reversed SDF1α effect with a blue shift"}, {"measurement": "irrelevant GPCR activation state, Amax shift in fluorescence", "setting": "[2]", "value": "Neither benchmark ligands SDF1α and AMD3100, nor Example 60 showed any effect"}, {"measurement": "numbers of white blood cells in the blood vs vehicle control", "setting": "Male C57BL/6 Rj mice", "value": "significantly higher"}]}
{"smiles": "c1ccc2c(c1)CN=C(SCCN1CCCC1)N2", "note": "[Example 77, 2-((2-(pyrrolidin-1-yl)ethyl)thio)-1,4-dihydroquinazoline dihydrochloride]", "values": [{"measurement": "IC50", "setting": "[3]", "value": "≤ 10", "unit": "µM"}, {"measurement": "IC50", "setting": "[4]", "value": "≥ 15", "unit": "µM"}, {"measurement": "IL-1β production by activated monocytes in the presence of Example 77 with CXCR4 blocked by AMD3100", "setting": "[5]; [6]", "value": "restored"}, {"measurement": "TNFα production by activated monocytes in the presence of Example 77 with CXCR4 blocked by AMD3100", "setting": "[5]; [6]", "value": "restored"}, {"measurement": "IL-1β production by activated monocytes in the presence of Example 77 after CXCR4 siRNA", "setting": "[5]; siCXCR4 vs siCTL, Example 77 50 nM, R848 1 μg/mL, % IL-1β positive cells", "value": "restored"}, {"measurement": "IL-6 production by activated monocytes in the presence of Example 77 after CXCR4 siRNA", "setting": "[5]; siCXCR4 vs siCTL, Example 77 50 nM, R848 1 μg/mL, % IL-6 positive cells", "value": "restored"}, {"measurement": "TNFα production by activated monocytes in the presence of Example 77 after CXCR4 siRNA", "setting": "[5]; siCXCR4 vs siCTL, Example 77 50 nM, R848 1 μg/mL, % TNFα positive cells", "value": "restored"}]}
{"smiles": "C1=C(CSC2=NCc3ccccc3N2)N2CC(Cc3ccccc3)N=C2S1", "note": "(centres unmarked) [Example 65, 6-benzyl-3-(((3,4-dihydroquinazolin-2-yl)thio)methyl)-5,6-dihydroimidazo[2,1-b]thiazole dihydrochloride]", "values": [{"measurement": "IC50", "setting": "[3]", "value": "≤ 10", "unit": "µM"}, {"measurement": "IC50", "setting": "[4]", "value": "≥ 15", "unit": "µM"}]}
{"smiles": "Clc1ccc2c(c1)CN1C(CSC3=NCc4ccccc4N3)=CSC1=N2", "note": "[Example 19, 7-chloro-3-(((1,4-dihydroquinazolin-2-yl)thio)methyl)-5H-thiazolo[2,3-b]quinazoline dihydrochloride]", "values": [{"measurement": "IC50", "setting": "[3]", "value": "≤ 10", "unit": "µM"}, {"measurement": "IC50", "setting": "[4]", "value": "≥ 15", "unit": "µM"}]}
{"smiles": "c1ccc(CC2CN=C(SCCCc3ccncc3)N2)cc1", "note": "(centres unmarked) [Example 55, 4-(3-((5-benzyl-4,5-dihydro-1H-imidazol-2-yl)thio)propyl)pyridine dihydrochloride]", "values": [{"measurement": "IC50", "setting": "[3]", "value": "10 to 32", "unit": "µM"}, {"measurement": "IC50", "setting": "[4]", "value": "≥ 15", "unit": "µM"}]}
